Tests used:
[1] = Solubility of cefditoren pivoxil in lecithin dispersions; type: physicochemical
Experimental: The solubility of cefditoren pivoxil in various lecithins was determined as follows. Three types of lecithin were tested: lecithin (LECI-PC 35P available from Traco Labs, IL), modified lecithin (containing 70% maltodextrin and 30% phosphatidyl choline; ALCOLEC SM 100 available from American Lecithin Inc. of CT) and hydroxylated lecithin (CENTROLENE A, available from Central Soya, IN). 5%, 10% and 15% suspensions of each type of lecithin were made up in distilled deionized water to form the test dispersions. Cefditoren pivoxil (available from Meiji Saika Kaisha Ltd of Japan) was added to each test dispersion. Each sample was vortexed for one minute, sonicated for two minutes, vortexed again for one minute and then centrifuged at 2000 rpm for ten minutes at room temperature. The resulting supernatant fraction was collected, filtered through a 0.45 μm filter and analyzed by HPLC.

[2] = tested on: Carboxylesterase from porcine liver; test: Esterase degradation of cefditoren pivoxil; type: in vitro ADME; details: 20 minutes, 37° C.; for amount of cefditoren pivoxil remaining: esterase; for % cefditoren pivoxil remaining: simulated intestinal fluid
Experimental: First, a test was performed to determine whether cefditoren pivoxil is degraded by esterase. 25 mg of cefditoren pivoxil (available from Meiji Saika Kaisha Ltd of Japan) was dissolved in 100 ml of an aqueous solution containing 10% dimethylsulfoxide and 0.1 N. hydrochloric acid to make up an 0.25 mg/ml solution. Carboxylesterase (also referred to as esterase herein) from porcine liver (15 mg protein/ml, 250 units/mg protein, available from Sigma-Aldrich) was dissolved in simulated intestinal fluid (SIF having no added pancreatin, available from Sigma-Aldrich) to make up a solution having 0.5 units/ml.
2 ml of the cefditoren pivoxil solution was then mixed with 2 ml of the esterase solution and 2 ml of simulated intestinal fluid. This mixture was allowed to react for 20 minutes at 37° C. and then the reaction was quenched with 1.0 ml of acetonitrile. This procedure was repeated with esterase at two other concentrations.
The experimental procedure was as described above, except that the cefditoren pivoxil was dissolved in 3% lecithin (LECI-PC 35 P, available from Traco Labs of IL).
The amount of cefditoren pivoxil remaining in each of the samples was determined by HPLC, and compared to the amount of cefditoren pivoxil of a control solution. The control solution was 2.0 ml cefditoren pivoxil, 2.0 ml of 10% modified lecithin solution and 2.0 ml simulated intestinal fluid incubated and then quenched as above.

- solubility ([1]; in aqueous lecithin solution (LECI-PC 35P)): 678.5 µg/mL
- solubility ([1]; in hydroxylated lecithin (CENTROLENE A)): 715.0 µg/mL
- solubility ([1]; in modified lecithin (ALCOLEC SM 100)): 868.1 µg/mL
- solubility ([1]; in water alone): 31.8 µg/mL
- amount of cefditoren pivoxil remaining ([2]; cefditoren pivoxil dissolved in 3% lecithin (LECI-PC 35 P)): 57.4%
- amount of cefditoren pivoxil remaining ([2]; control (non-lecithin containing) solution): 7%
- % cefditoren pivoxil remaining ([2]; esterase concentration 0.05 units/ml): 81.9%
- % cefditoren pivoxil remaining ([2]; esterase concentration 0.5 units/ml): 4.5%
- % cefditoren pivoxil remaining ([2]; esterase concentration 5 units/ml): 0.3%
Substance: cefditoren pivoxil

— patent US20050113337A1, “Enhancement of oral bioavailability of non-emulsified formulations of prodrug esters with lecithin” (TAP Pharmaceutical Products, Inc., priority 2001, published 2005)
